Results from patent US20160130226A1, “SPIRO-SUBSTITUTED OXINDOLE DERIVATIVES HAVING AMPK ACTIVITY” (BOEHRINGER INGELHEIM INTERNATIONAL GMBH, priority 2013, published 2016).

Biological target: T1, AMPK beta 1 (Homo sapiens, UniProt Q13131+Q9Y478)
T1 construct: in-cell-ELISA for phospho-ACC (Acetyl-CoA carboxylase 1) in HepG2 cells (liver); endogenous in cells; host or cells: HepG2 (assignment to the beta 1 column inferred)
Test: in-cell-ELISA for phospho-ACC: activation of AMPK, beta 1 (HepG2 cells / C2C12 myotubes)
Assay type: cell-based
Settings: 2 h, percentage activation over vehicle control
Method: Activation of AMPK by various compounds were measured using in-cell-ELISA for phospho-ACC (Acetyl-CoA carboxylase 1) in HepG2 cells (liver) and fully differentiated myotubes (C2C12 cells) grown in 96 well plate. Cells were treated with 1 μM, 3 μM or 10 μM of the molecule (Example) for 2 h in serum free DMEM media. After methanol fixation, cells were blocked with BSA followed by addition of anti-phospho ACC antibody (Cell Signaling) and HRP conjugated secondary antibody. Absorbance values taken at 450 nm were normalized with total DNA (Hoechest stain). Results were expressed as percentage activation over vehicle control.
Percentage activation at compound (Example) concentration of 1, 3 or 10 μM for compounds according to the invention are shown in the following table. The number of the compound corresponds to the number of the Example (Ex) in the experimental section.

[1] = 3 μM, read-out: Percentage activation of beta 1 at given concentration
[2] = 10 μM, read-out: Percentage activation of beta 1 at given concentration

T1 sequence (Q9Y478 2-270 limits assumed): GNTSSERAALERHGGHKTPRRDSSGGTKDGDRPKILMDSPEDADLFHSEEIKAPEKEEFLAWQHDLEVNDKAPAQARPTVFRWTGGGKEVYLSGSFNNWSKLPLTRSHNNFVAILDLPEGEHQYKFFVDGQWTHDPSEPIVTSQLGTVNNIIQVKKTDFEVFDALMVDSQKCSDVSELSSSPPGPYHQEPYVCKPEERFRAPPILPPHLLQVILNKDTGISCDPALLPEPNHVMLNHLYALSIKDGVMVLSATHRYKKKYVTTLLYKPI
T1 sequence (Q13131 whole entry): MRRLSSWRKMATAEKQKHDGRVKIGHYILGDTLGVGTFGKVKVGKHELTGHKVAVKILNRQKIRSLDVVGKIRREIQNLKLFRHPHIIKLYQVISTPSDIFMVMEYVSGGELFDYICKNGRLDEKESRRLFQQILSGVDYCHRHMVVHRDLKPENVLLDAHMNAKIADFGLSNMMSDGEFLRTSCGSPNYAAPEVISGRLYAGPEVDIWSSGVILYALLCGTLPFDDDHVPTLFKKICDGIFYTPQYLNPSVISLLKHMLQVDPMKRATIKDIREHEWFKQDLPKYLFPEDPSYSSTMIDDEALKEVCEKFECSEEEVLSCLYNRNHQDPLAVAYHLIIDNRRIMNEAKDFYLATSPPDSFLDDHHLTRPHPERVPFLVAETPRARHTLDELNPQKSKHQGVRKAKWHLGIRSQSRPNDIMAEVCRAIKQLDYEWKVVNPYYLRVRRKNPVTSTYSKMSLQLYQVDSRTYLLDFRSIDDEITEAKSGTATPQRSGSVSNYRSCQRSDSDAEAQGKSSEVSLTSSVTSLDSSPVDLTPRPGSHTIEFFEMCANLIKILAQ
T1 sequence (P54619 whole entry partner): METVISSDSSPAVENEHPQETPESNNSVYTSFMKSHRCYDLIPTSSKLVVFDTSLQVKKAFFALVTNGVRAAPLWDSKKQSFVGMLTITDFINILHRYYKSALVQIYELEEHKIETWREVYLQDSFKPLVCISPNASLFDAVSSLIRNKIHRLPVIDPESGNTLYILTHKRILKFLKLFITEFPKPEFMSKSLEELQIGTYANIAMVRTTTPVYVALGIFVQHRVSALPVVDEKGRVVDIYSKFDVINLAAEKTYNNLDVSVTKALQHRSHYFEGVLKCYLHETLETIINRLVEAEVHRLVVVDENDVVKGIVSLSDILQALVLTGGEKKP

O=C(O)Cc1cccc(C2CC23C(=O)Nc2cc(F)c(-c4ccc(-c5ccc(-n6cccn6)cc5)cc4)cc23)c1 (centres unmarked) [Example 171]
activation at 1 µM (1 μM, read-out: Percentage activation of beta 1 at given concentration): 44%

Cc1ccc(C2CC23C(=O)Nc2cc(F)c(-c4ccc(-c5ccc(-n6cccn6)cc5)cc4)cc23)cc1C(=O)O (centres unmarked) [Example 144]
Percentage activation of beta 1 at given concentration (1 μM): 118% at 1 μM

CCN1C(=O)C2(CC2c2ccc(OC)c(CC(=O)O)c2)c2cc(-c3ccc(-c4ccncc4)cc3)c(Cl)cc21 (centres unmarked) [Example 110]
activation at 3 µM [1]: 58%

O=C(O)Cc1cccc(C2CC23C(=O)Nc2cc(Cl)c(-c4ccc(C5(CO)CC5)cc4)cc23)c1 (centres unmarked) [Example 48]
activation at 10 µM [2]: 74%

Cc1ccc(C2CC23C(=O)Nc2cc(F)c(-c4ccc(-c5ccccc5O)cc4)cc23)cc1CC(=O)O (centres unmarked) [Example 6]
activation at 3 µM [1]: 66%

Cc1ccc(C2CC23C(=O)Nc2cc(Cl)c(-c4ccc(-c5ccc(-n6cncn6)cc5)cc4)cc23)cc1C(C)(C)O (centres unmarked) [Example 186]
activation at 3 µM [1]: 32%

Cc1ccc(C2CC23C(=O)Nc2cc(Cl)c(S(=O)(=O)NC4CCC4)cc23)cc1C(=O)O (centres unmarked) [Example 91]
activation at 10 µM [2]: 10%

Cc1ccc(C2CC23C(=O)Nc2cc(F)c(-c4ccc(-c5ccncc5)cc4)cc23)cc1C(=O)O (centres unmarked) [Example 81]
activation at 3 µM [1]: 55%

Cc1ccc(C2CC23C(=O)N(CC2CC2)c2cc(Cl)c(-c4ccc(-c5ccncc5)cc4)cc23)cc1C(=O)O (centres unmarked) [Example 109]
activation at 3 µM [1]: 83%

COc1ccc(C2CC23C(=O)Nc2cc(F)c(-c4ccc(-c5ccccc5O)cc4)cc23)cc1C(=O)O (centres unmarked) [Example 10]
activation at 10 µM [2]: 40%

Cc1ccc(C2CC23C(=O)Nc2cc(Cl)c(-c4ccc(N5CCC[C@H]5CO)cc4)cc23)cc1C(=O)O (some centres unmarked) [Example 49]
activation at 3 µM [1]: 53%

Cc1ccc(C2CC23C(=O)Nc2cc(Cl)c(-c4ccc(-c5ccc(-n6cncn6)cc5)cc4)cc23)cc1CO (centres unmarked) [Example 185]
Percentage activation of beta 1 at given concentration (3 μM): 34% at 3 μM

COc1ccc(C2CC23C(=O)Nc2cc(Cl)c(-c4ccc(-c5ccc(-n6cccn6)cc5)cc4)cc23)cc1C(=O)O (centres unmarked) [Example 121]
activation at 3 µM [1]: 91%

Cc1ccc(C2CC23C(=O)Nc2cc(F)c(-c4ccc(-c5ccc(-n6cncn6)cc5)cc4)cc23)cc1C(=O)O (centres unmarked) [Example 148]
Percentage activation of beta 1 at given concentration (1 μM): 127% at 1 μM

Cc1ccc(C2CC23C(=O)Nc2cc(Cl)c(-c4ccc(-c5ccncc5)cc4)cc23)cc1C(=O)O (centres unmarked) [Example 59]
activation at 3 µM [1]: 42%

Cc1ccc(C2CC23C(=O)Nc2cc(F)c(-c4ccc(N5CCOCC5)cc4)cc23)cc1C(=O)O (centres unmarked) [Example 57]
activation at 10 µM [2]: 89%

CN1C(=O)C2(CC2c2ccc(C(C)(C)C(=O)O)cc2)c2cc(-c3ccc(-c4ccncc4)cc3)c(Cl)cc21 (centres unmarked) [Example 112]
activation at 3 µM [1]: 30%

O=C(O)Cc1cccc(C2CC23C(=O)Nc2cc(Cl)c(-c4ccc(-c5ccccc5O)cn4)cc23)c1 (centres unmarked) [Example 18]
Percentage activation of beta 1 at given concentration (10 μM): 168% at 10 μM

Cc1ccc(C2CC23C(=O)Nc2cc(Cl)c(-c4ccc(-c5ncccc5O)cc4)cc23)cc1C(=O)O (centres unmarked) [Example 20]
activation at 3 µM [1]: 99%

O=C1Nc2cc(Cl)c(-c3ccc(-c4ccc(-n5cncn5)cc4)cc3)cc2C12CC2c1ccc(-c2nnn[nH]2)cc1 (centres unmarked) [Example 191]
activation at 3 µM [1]: 21%

COCN1C(=O)C2(CC2c2ccc(C)c(C(=O)O)c2)c2cc(-c3ccc(-c4ccncc4)cc3)c(Cl)cc21 (centres unmarked) [Example 99]
activation at 3 µM [1]: 66%

Cc1ccc(C2CC23C(=O)Nc2cc(Cl)c(-c4ccc(-c5ccc(-n6cncn6)cc5)c(F)c4)cc23)cc1C(=O)O (centres unmarked) [Example 152]
Percentage activation of beta 1 at given concentration (1 μM): 95% at 1 μM

O=C(O)Cc1cccc(C2CC23C(=O)Nc2cc(Cl)c(-c4ccc(-c5ccncc5)cc4)cc23)c1 (centres unmarked) [Example 61]
Percentage activation of beta 1 at given concentration (3 μM): 118% at 3 μM

O=C(O)c1cccc(C2CC23C(=O)Nc2cc(F)c(-c4ccc(-c5ccccc5O)cc4)cc23)c1 (centres unmarked) [Example 1]
activation at 10 µM [2]: 102%

CC(C)c1ccc(C2CC23C(=O)Nc2cc(Cl)c(-c4ccc(-c5ccc(-n6cncn6)cc5)cc4)cc23)cc1C(=O)O (centres unmarked) [Example 131]
activation at 3 µM [1]: 47%

COc1ccc(C2CC23C(=O)Nc2cc(F)c(-c4ccc(-c5ccncc5)cc4)cc23)cc1C(=O)O (centres unmarked) [Example 84]
activation at 10 µM [2]: 75%

O=C(O)Cc1ccc(C2CC23C(=O)Nc2cc(Cl)c(-c4ccc(-c5ccc(-n6cncn6)cc5)cc4)cc23)cc1 (centres unmarked) [Example 127]
activation at 3 µM [1]: 71%

COc1ccc(C2CC23C(=O)Nc2cc(Cl)c(-c4ccc(-c5ccncc5)cc4)cc23)cc1C(=O)O (centres unmarked) [Example 73]
activation at 10 µM [2]: 23%

O=C(O)Cc1cccc(C2CC23C(=O)Nc2cc(Cl)c(-c4ccc(-c5ccncc5)cc4)cc23)c1 (centres unmarked) [Example 58]
Percentage activation of beta 1 at given concentration (3 μM): 47% at 3 μM
